Holding throughout (format): physicochemical
Data set [1] in a line: Emulsion stability test (modified, xylene/water). The note with it: 0.5g surfactant, 90 mL deionized water, 5.0 mL xylene; second rocking sequence. As for the experimental part: In order to obtain reproducible results, an emulsion stability test, modified from the standard used in the art for testing surfactants was developed. In the modified procedure, 0.5g of a select surfactant (instead of 1g) was dissolved in 90 mL of deionized water in a graduated cylinder containing 5.0 mL of xylene, which was then sealed and rocked between a vertical/horizontal position for 30 cycles, allowed to settle for about 5 to 10 minutes and subjected to the same rocking cycle with the results of the second sequence recorded (instead of the first sequence).

The nature of data set [2]: Thermal stability followed by IR spectroscopy. Conditions: for Conversion to the N-dodecylphthalimide: neat (100% actives), about 100°C. As for the experimental part:
Thermal stability studies were conducted with neat (100% actives) sample of ammonium N-dodecylphthalamate mulled on sodium chloride plates. […]

A short description of data set [3]: Bleach (chlorine ion) stability. The note with it: for formulation clarity / foaming characteristics: 2.0% actives surfactant, 4.0% actives NaOCl; for formulation clarity: 1.0% NaOH, 90°C water bath about 5 hours; for foaming characteristics: after about 5 hours at 90°C. The text has this:
Select N-alkyl and N,N-dialkyl phthalamates were incorporated into a standard test formulation containing a common bleach. […] The standard formulation comprised 4.0% actives of NaOCl; 0.25% actives NaCl; 1.0% actives NaOH (50%); 2.0% actives surfactant and Q.S. 100% deionized water. 1. DOWFAX^R-2A1 is Dow Chemical Company's registered trademark for sodium branched C₁₂ diphenyloxide disulfonate. 2. MAKON^R- 10 is Stepan Company's registered trademark for a nonylphenol polyethoxylate.
The various formulations were individually placed in tightly capped jars and subjected to a 90°C water bath for about 5 hours and then observed for formulation clarity and foaming characteristics. Each sample was run in duplicate.

The nature of data set [4]: Crude oil emulsification/dispersion and pH reversibility. As for the experimental part:
Sodium N-dodecylphthalamate, sodium N-cocophthalamate, sodium N-isodecyloxypropylphthalamate and sodium N-isododecyloxypropylphthalamate, along with a control (tap water only), were evaluated as emulsifying and/or dispersing and/or suspending agents for a given, heavy (viscous) crude petroleum oil (Dome crude oil, David Field, California) in different water samples, one having a hardness (expressed as CaCO₃) of 150 ppm, another having a hardness of 500 ppm, along with a synthetic sea water (NaCl-containing tap water, 150 ppm). In addition, various admixtures of sodium N-dodecylphthalamate and lauryl amine oxide were similarly evaluated with the above petroleum crude oil and synthetic sea water for synergistic emulsification characteristics.
The respective surfactants were prepared as aqueous solutions with the various water samples at a concentration of about 0.1 percent actives. Measured samples (50 mL) of the surfactant solutions were placed in 100 mL graduated cylinders, 2 drops of the crude oil added, the cylinders stoppered and relatively vigorously shaken manually for about 10 to 20 seconds. The degree of emulsification/dispersion, suspension was noted and recorded The data is set for in Table VIII below.
At relatively high pH values (i.e., above about 7) emulsification of the crude oil readily occurred and at relatively how pH values (i.e., below about 5) de-emulsification of the crude oil readily occurred. A control was prepared from a sample of the 150 ppm hardness water without surfactant but with 2 drops of the above crude oil.
The foregoing cycle between relatively high pH and relatively low pH was repeated an additional three times, with essentially identical emulsification/de-emulsification results. During a low (4.9) pH de-emulsification cycle, separated crude oil was removed, by decantation and a pH of the remaining (used) phthalamic solution was adjusted to about 13.5 and fresh crude oil added. […] Upon addition of additional fresh sodium N-dodecylphthalamate, the emulsion re-formed.

Data set [5] in a line: Caustic stability (reflux with NaOH). The note with it: for ES*(mL/sec) (Emulsion Stability): reflux with an equivalent of NaOH. As for the experimental part:
In order to determine caustic stability of the phthalamates, 5g of octylphthalamic acid was dissolved in 450 mL of water containing an equivalent of NaOH. This mixture was heated at reflux for about 24 hours and five separate 90mL samples were withdrawn at 0 hours, 1 hour, 2 hours, 16.5 hours and 23.7 hours. The resulting individual samples were acidified and the sodium N-octylphthalamic acid was isolated and analyzed (filtered, dried, weighted and m.p. and neutralization equivalents were obtained).

Data set [6] is described as follows: Particulate material suspension. As for the experimental part:
In this test, potassium N-octadecylphthalamate was utilized as a suspending agent in a typical shampoo base with known particulate anti-dandruff materials, zinc pyrithione and coal tar. Particulate (about 500 mesh) zinc pyrithione and particulate (about 350 to 400 mesh) coal tar were suspended in shampoo base formulations and stored at room temperature, at about 1.6°C and at about 43.3°C.
About 2 percent potassium octadecylphthalamate was incorporated with about 50 to 70 percent particulate coal (average size about 200 mesh) and about 30 to 50 percent water at ambient temperature.

The next data set in a line: Draves Wetting test. The note with it: tap water; active level of 0.1%. The text has this:
(§1) Standard Ross-Miles Foaming and Draves Wetting tests were preformed on various fatty phthalamates with the results set forth in Table 1 below. In all tests, an active level of 0.1% was utilized.

A short description of the next data set: Ross-Miles Foaming test. Conditions: tap water; active level of 0.1%.
Source text: as §1

Where [7] appears, read: 0.1% actives in 50 mL of 150 ppm hardness water.

The results in this text go back to patent EP0705591A2, “Cyclic amidocarboxy surfactants, synthesis and use thereof” (STEPAN COMPANY, priority 1989, dated 1991).

On to `CCCCCCCCCCNC(=O)c1ccccc1C(=O)[O-].[Na+]` [Sodium N-decylphthalamate], for which, in data set [1], the “Emulsion Break Rate” value was determined as 0.034 mL/s.
`CCCCCCCCCCCCNC(=O)c1ccccc1C(=O)[O-].[Na+]` [Sodium N-dodecylphthalamate, Sodium N-Dodecylphthalamate]: the “Emulsion Break Rate” value in data set [1] is 0.068 mL/s. Besides, the thermal stability entry in data set [2] (120°C) is reported as “stabile”. Further, in data set [3], the formulation clarity result was “initially clear yellow but became cloudy and exhibited phase separation”. For the same molecule, the “pH values at which de-emulsification of the crude oil readily occurred” value in data set [4] (setting [7]) was “below 5”. Further, the “pH values at which emulsification of the crude oil readily occurred” value in data set [4] (setting [7]) is on record as “above 7”. The “emulsification of crude oil” value is on record as “the oil readily emulsified” in data set [4] (0.1% actives, 150 ppm hardness water, pH of 8.5); “the emulsion broke” in data set [4] (pH dropped to about 3.5); “a slight flocculation noted” in data set [4] (pH dropped to about 5.2); “without noticeable de-emulsification” in data set [4] (pH dropped to about 7.0); “the emulsion broke, almost instantly, with floccing” in data set [4] (pH dropped with 1N HCl to about 2.6); “an emulsified solution was noted” in data set [4] (pH raised with 1N NaOH to about 13.4). Besides, in data set [4] (used solution, pH about 13.5, fresh crude oil added), the “emulsification of crude oil” value is given as “very stabile emulsion was quickly formed”.
Regarding `CCCCCCCCCCCCCCCCNC(=O)c1ccccc1C(=O)[O-].[Na+]` [Sodium N-hexadecylphthalamate], in data set [1], the “Emulsion Break Rate” value was determined as 0.102 mL/s.
In the case of `CCCCCCCCNC(=O)c1ccccc1C(=O)[O-].[Na+]` [Sodium N-octylphthalamate], the “Emulsion Break Rate” value in data set [1] stood at 0.111 mL/s. In addition, in data set [5] (caustic environment, reflux about 24 hours), the “pH at which stable” value is recorded as “at least 10”. Further, the “ES*(mL/sec) (Emulsion Stability)” value in data set [5] (sample at 0 hr) amounted to 0.0252 mL/s; in data set [5] (sample at 1 hr) it was 0.0325 mL/s; in data set [5] (sample at 2 hr), 0.0400 mL/s; in data set [5] (sample at 16.5 hr), 0.0690 mL/s; in data set [5] (sample at 23.7 hr) it was 0.108 mL/s.
For `CCCCCCCCCCCCCCNC(=O)c1ccccc1C(=O)[O-].[Na+]` [Sodium N-tetradecylphthalamate], in data set [1], the “Emulsion Break Rate” value was 0.085 mL/s.
On to `CCCCCCCCCCNC(=O)c1ccccc1C(=O)O.OCCN(CCO)CCO` [Triethanolammonium N-decylphthalamate], for which, in data set [1], the “Emulsion Break Rate” value amounted to 0.046 mL/s.
The same measure, in the same setting: for `CCCCCCCCCCCCNC(=O)c1ccccc1C(=O)O.OCCN(CCO)CCO` [Triethanolammonium N-dodeylphthalamate] the value was 0.039 mL/s.
For the molecule `CCCCCCCCNC(=O)c1ccccc1C(=O)O.OCCN(CCO)CCO` [Triethanolammonium N-octylphthalamate], the “Emulsion Break Rate” value in data set [1] turned out to be 0.043 mL/s.
With `CCCCCCCCCCCCNC(=O)c1ccccc1C(=O)O.N` [ammonium N-dodecylphthalamate, Ammonium N-Dodecylphthalamate], the figures for the “Conversion to the N-dodecylphthalimide” value in data set [2] (10 minutes) and in data set [2] (20 minutes) were “very apparent” and “almost total conversion”, respectively.
As for `CCCCCCCCCCCCCCCCCCNC(=O)c1ccccc1C(=O)[O-].[K+]` [potassium N-octadecylphthalamate], the “suspension of particulate coal in water” value in data set [6] (about 2 percent with about 50 to 70 percent coal (about 200 mesh), ambient temperature) is given as “free flowing, substantially homogeneous suspension”. In data set [6] (after 5 days at 43.3°C), the “stability of zinc pyrithione suspension in shampoo base” value was “phase separation”. Moreover, the “stability of coal tar suspension in shampoo base” value in data set [6] (after 5 days at room temperature, at 1.6°C and at 43.3°C) was “excellent stability”.
With `CCCCCCCCCCCCN(C)C(=O)c1ccccc1C(=O)[O-].[Na+]` [sodium N-methyl-N-dodecylphthalamate, Sodium N-Dodecyl-N-methylphthalamate], in data set [3], the formulation clarity entry is “clear yellow throughout the test” and the foaming characteristics result is listed as “unstabile”. The bleach stability entry in data set [3] (conclusion from the 90°C bleach test) was “good bleach stability”.
For `CC(C)CCCCCCCCCOCCCNC(=O)c1ccccc1C(=O)[O-].[Na+]` [sodium isododecyloxypropylphthalamate, Sodium N-Isododecyloxypropylphthalamate], in “Draves Wetting test”, the wetting time was 4.5 s. In “Ross-Miles Foaming test”, this molecule yielded a foam height of 5.5 cm.
On to sodium N,N-dicocophthalamate, for which, in data set [3], the formulation clarity result is recorded as “poor solubility, with phase separation” and the foaming characteristics entry was “no pre-bath or post-bath foam”.
